# Results taken from patent US9689040B2, “Selective inhibitors of tumor-initiating cells” (Children's Medical Center Corporation, priority 2011, dated 2017).
# Legend:
# BPLER cells [1] = experiment: Secondary (cherry-pick) screen with the 4 individual siRNAs of each pool; settings: for Cherry_Score: secondary cherry-pick screen, 4 individual siRNAs of each pool
# HMLER cells = experiment: Genome-wide siRNA lethality screen (primary screen), CellTiterGlo viability; format: cell-based, human; settings: for MAD_HMLER / Fold_HMLER: primary screen, HMLER cells; for MAD_HMLER: MAD score; for MAD HMLER: MAD score of viability in HMLER cells; for Fold HMLER: fold viability in HMLER cells
# BPLER cells [2] = experiment: as above; format: cell-based, human; settings: for MAD BPLER / Fold BPLER: siRNA pool against the gene; for MAD BPLER: MAD score of viability in BPLER cells; for Fold BPLER: fold viability in BPLER cells; for Ratio: R, BPLER versus HMLER, primary screen
# [3] = secondary screen with the 4 individual siRNAs of each pool
# [4] = siRNA pool against the gene, fold viability
# [5] = ratio of Fold_BPLER to Fold_HMLER
# [6] = ratio of fold viability BPLER/HMLER
# [7] = validation screen with individual siRNAs of each pool
Substance,Cherry_Score (BPLER cells [1]),Cherry Score (BPLER cells [1]; [3]),MAD_HMLER (HMLER cells; siRNA pool against the gene),Fold_HMLER (HMLER cells; [4]),MAD HMLER (HMLER cells; siRNA pool against the gene),Fold HMLER (HMLER cells; siRNA pool against the gene),Ratio BPLER/HMLER (BPLER cells [2]; [5]),Ratio BPLER/HMLER (BPLER cells [2]; [6]),MAD BPLER (BPLER cells [2]),Fold BPLER (BPLER cells [2]),Cherry Score (BPLER cells [1]; [7]),Fold_HMLER (HMLER cells; siRNA pool),Ratio (BPLER cells [2])
POLA1,3,3,−0.17,0.97,−0.17,0.97,0.74,0.74,−2.01,0.724,,,
NM_134444,,,,,,,,,,,1,1.01,0.69
TANC2,1,1,0.40,1.05,0.40,1.05,0.67,0.67,−1.86,0.709,,,
USP39,2,2,−0.04,0.99,−0.04,0.99,0.70,0.70,−2.13,0.695,,,
NM_080730,,,,,,,,,,,1,0.99,0.72
TNPO1,1,1,−0.59,0.90,−0.59,0.90,0.70,0.70,−1.99,0.630,,,
NM_198080,,,,,,,,,,,1,0.85,0.67
PCBP3,1,1,0.15,1.02,0.15,1.02,0.71,0.71,−1.69,0.727,,,
NM_152374,,,,,,,,,,,2,0.97,0.72
PRC1,1,1,−2.40,0.60,−2.40,0.60,0.68,0.68,−3.08,0.409,,,
PDE6C,1,1,−0.33,0.95,−0.33,0.95,0.66,0.66,−1.98,0.621,,,
NM_152905,,,,,,,,,,,1,1.08,0.67
SLC47A1,2,2,−0.71,0.90,−0.71,0.90,0.68,0.68,−1.62,0.613,,,
PHF1,1,1,−0.72,0.86,−0.72,0.86,0.71,0.71,−3.21,0.606,,,
TBC1D24,2,2,−0.32,0.95,−0.32,0.95,0.71,0.71,−1.97,0.680,,,
NM_052946,,,,,,,,,,,1,0.90,0.67
SCD,2,2,−1.58,0.75,−1.58,0.75,0.74,0.74,−3.24,0.555,,,
